In PMC8815882, “Screening the pandemic response box identified benzimidazole carbamates, Olorofim and ravuconazole as promising drug candidates for the treatment of eumycetoma” (PLoS Neglected Tropical Diseases, 2022):
Like-named read-outs stand apart in the source and are kept apart here.

Test system: M. mycetomatis genome strain MM55
Assay: CLSI M38-A2 based in vitro susceptibility screening (XTT or resazurin), growth at fixed concentration
Format: cell-based, Madurella mycetomatis
Settings: Madurella mycetomatis; for Percent fungal survival at 100 µM: replicate 2
[1] = 25 uM, mean of three replicates, read-out: Percentage survival at 25um, 25 uM mean
[2] = 25 uM, replicate A, read-out: Percentage survival at 25um, 25 um A
[3] = 25 uM, replicate B, read-out: Percentage survival at 25um, 25 uM B
[4] = 25 uM, replicate C, read-out: Percentage survival at 25um, 25 uM C
[5] = first replicate column, read-out: Percentage survival at 100um, 100 uM A
[6] = mean of three replicates, read-out: Percentage survival at 100um, 100 uM mean
[7] = second replicate column, read-out: Percentage survival at 100um, 100 uM A
[8] = third replicate column, read-out: Percentage survival at 100um, 100 uM A
[9] = 25 uM, mean of replicates, MM55, read-out: Percentage survival at 25um, 25 uM mean
[10] = 25 uM, replicate A, MM55, read-out: Percentage survival at 25um, 25 um A
[11] = 25 uM, replicate B, MM55, read-out: Percentage survival at 25um, 25 uM B
[12] = 25 uM, replicate C, MM55, read-out: Percentage survival at 25um, 25 uM C
[13] = mean of replicates, MM55, read-out: Percentage survival at 100um, 100 uM mean
[14] = replicate 1, MM55, read-out: Percentage survival at 100um, 100 uM A
[15] = replicate 2, MM55, read-out: Percentage survival at 100um, 100 uM A
[16] = replicate 3, MM55, read-out: Percentage survival at 100um, 100 uM A
[17] = replicate 1, read-out: Percentage survival at 100um, 100 uM A (first replicate column)
[18] = read-out: Percentage survival at 100um, 100 uM A (second replicate column)
[19] = replicate 3, read-out: Percentage survival at 100um, 100 uM A (third replicate column)

Row | Compound | activity at 25 µM [1] | activity at 25 µM [2] | activity at 25 µM [3] | activity at 25 µM [4] | activity at 100 µM [5] | activity at 100 µM [6] | activity at 100 µM [7] | activity at 100 µM [8] | activity at 25 µM [9] | activity at 25 µM [10] | activity at 25 µM [11] | activity at 25 µM [12] | activity at 100 µM [13] | activity at 100 µM [14] | activity at 100 µM [15] | activity at 100 µM [16] | other results
1 | NS(=O)(=O)c1ccc(NC(=O)NC(c2ccccc2)c2ccccc2)cc1 [MMV1579776] | – | – | – | – | – | – | – | – | – | – | – | – | – | – | – | – | activity at 25 µM (25 uM, replicate A, M. mycetomatis MM55, read-out: Percentage survival at 25um, 25 um A): 95.1%; activity at 100 µM (mean of three, M. mycetomatis MM55, read-out: Percentage survival at 100um, 100 uM mean): 97%; activity at 100 µM (replicate 1, M. mycetomatis MM55, read-out: Percentage survival at 100um, 100 uM A (first replicate column)): 103%; activity at 100 µM (replicate 2, M. mycetomatis MM55, read-out: Percentage survival at 100um, 100 uM A (second replicate column)): 98.7%; activity at 100 µM (replicate 3, M. mycetomatis MM55, read-out: Percentage survival at 100um, 100 uM A (third replicate column)): 89%; activity at 25 µM (read-out: Percentage survival at 25um, 25 uM B): 101%; activity at 25 µM (read-out: Percentage survival at 25um, 25 uM C): 86.7%; activity at 25 µM (read-out: Percentage survival at 25um, 25 uM mean): 94.2%
2 | CC(=O)N1c2ccccc2NC2=C(C(=O)CC(C)(C)C2)C1c1ccc(OCc2ccccc2)cc1 (centres unmarked) [MMV1580503] | 100% | 99.4% | 107% | 94.6% | 99.3% | 97.8% | 113% | 80.9% | – | – | – | – | – | – | – | – | –
3 | CN(C)c1[nH]c(=O)ncc1F [MMV1782223] | – | 97% | 101% | 80.9% | – | – | – | – | – | – | – | – | – | – | – | – | activity at 25 µM (25 uM, mean, read-out: Percentage survival at 25um, 25 uM mean): 93%; activity at 100 µM (mean, read-out: Percentage survival at 100um, 100 uM mean): 82.8%; activity at 100 µM (replicate (first column), read-out: Percentage survival at 100um, 100 uM A): 84%; activity at 100 µM (replicate (second column), read-out: Percentage survival at 100um, 100 uM A): 75.3%; activity at 100 µM (replicate (third column), read-out: Percentage survival at 100um, 100 uM A): 88.9%
4 | O=C(NCCN1CCCCC1)c1cccc(C(F)(F)F)c1 [MMV1633964] | 86.8% | 87.8% | 90.2% | 82.3% | 77.6% | 81.1% | 90.5% | 75.1% | – | – | – | – | – | – | – | – | –
5 | COc1ccc(OCc2ccc(COc3c(Cl)cccc3Cl)cc2)c(Cl)c1 [MMV1580485] | – | – | – | – | – | – | – | – | 89.3% | 92.6% | 89.4% | 85.7% | 77.9% | 89.9% | 70.7% | 73.2% | –
6 | CCN1CCN(Cc2nc3ccc([N+](=O)[O-])cc3c(=O)n2-c2ccccc2F)CC1 [MMV275100] | – | – | – | – | – | – | – | – | 81.2% | 83% | 93.5% | 67.1% | 72.6% | 70.7% | 69.8% | 77.1% | –
7 | COc1ccc2nc(-c3ccccc3)cc(O)c2c1 [MMV011565] | 93.4% | 91.4% | 96.2% | 92.7% | – | 78.1% | – | – | – | – | – | – | – | – | – | – | activity at 100 µM [17]: 74.5%; Percent fungal survival at 100 µM [18]: 80.2%; activity at 100 µM [19]: 79.6%
8 | CC[N+]1(C/C2=C/CCCCCC2)CCC(NC(=O)C2c3cc(Cl)ccc3Oc3ccc(Cl)cc32)CC1 (centres unmarked) [MMV1580489] | 93.8% | 90.3% | 102% | 88.6% | -9.19% | -2.01% | -1.42% | 4.58% | – | – | – | – | – | – | – | – | –
9 | O=P(O)(O)C(CCCc1cccc(Oc2ccccc2)c1)S(=O)(=O)O (centres unmarked) [MMV1782215] | 69.1% | 82.3% | 68.2% | 56.8% | – | 68.9% | – | – | – | – | – | – | – | – | – | – | activity at 100 µM [17]: 79.5%; Percent fungal survival at 100 µM [18]: 65.1%; activity at 100 µM [19]: 62%
10 | CN(O)C(=O)c1cc2c(CN3CCC[C@H]3C(N)=O)cn(Cc3ccc(F)cc3)c2cn1 [MMV1782386] | – | – | – | – | – | – | – | – | 91.7% | 95% | 96.1% | 84% | 86% | 87.4% | 91.4% | 79.3% | –
